Test results taken from PubChem BioAssay (NCI).
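Grown in 96-well plates, cells were treated for 48 hours with each compound at five concentrations. Insufficient inhibition: endpoint recorded as highest concentration tested. TGI: total growth inhibition.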

Key:
Test in all cases: NCI anticancer screen, dose series, 48 h
786-0 renal = system: 786-0 renal
A498 renal = system: A498 renal
A549 NSCLC = system: A549 NSCLC
ACHN renal = system: ACHN renal
BT-549 breast = system: BT-549 breast
CAKI-1 renal = system: CAKI-1 renal
CCRF-CEM leukemia = system: CCRF-CEM leukemia
COLO 205 colon = system: COLO 205 colon
DU-145 prostate = system: DU-145 prostate
EKVX NSCLC = system: EKVX NSCLC
HCC-2998 colon = system: HCC-2998 colon
HCT-116 colon = system: HCT-116 colon
HCT-15 colon = system: HCT-15 colon
HL-60(TB) leukemia = system: HL-60(TB) leukemia
HOP-62 NSCLC = system: HOP-62 NSCLC
HOP-92 NSCLC = system: HOP-92 NSCLC
HS 578T breast = system: HS 578T breast
HT29 colon = system: HT29 colon
IGROV1 ovarian = system: IGROV1 ovarian
K-562 leukemia = system: K-562 leukemia
KM12 colon = system: KM12 colon
LOX IMVI melanoma = system: LOX IMVI melanoma
M14 melanoma = system: M14 melanoma
MALME-3M melanoma = system: MALME-3M melanoma
MCF7 breast = system: MCF7 breast
MDA-MB-231 breast = system: MDA-MB-231 breast
MDA-MB-435 = system: MDA-MB-435
MDA-N = system: MDA-N
MOLT-4 leukemia = system: MOLT-4 leukemia
NCI-H226 lung = system: NCI-H226 lung
NCI-H23 lung = system: NCI-H23 lung
NCI-H460 lung = system: NCI-H460 lung
NCI-H522 lung = system: NCI-H522 lung
NCI/ADR-RES ovarian = system: NCI/ADR-RES ovarian
OVCAR-3 ovarian = system: OVCAR-3 ovarian
OVCAR-4 ovarian = system: OVCAR-4 ovarian
OVCAR-5 ovarian = system: OVCAR-5 ovarian
OVCAR-8 ovarian = system: OVCAR-8 ovarian
PC-3 prostate = system: PC-3 prostate
RPMI-8226 leukemia = system: RPMI-8226 leukemia
RXF 393 renal = system: RXF 393 renal
SF-268 CNS = system: SF-268 CNS
SF-295 CNS = system: SF-295 CNS
SF-539 CNS = system: SF-539 CNS
SK-MEL-2 melanoma = system: SK-MEL-2 melanoma
SK-MEL-5 melanoma = system: SK-MEL-5 melanoma
SK-OV-3 ovarian = system: SK-OV-3 ovarian
SN12C renal = system: SN12C renal
SNB-19 CNS = system: SNB-19 CNS
SNB-75 CNS = system: SNB-75 CNS
SR leukemia = system: SR leukemia
SW-620 colon = system: SW-620 colon
T-47D breast = system: T-47D breast
TK-10 renal = system: TK-10 renal
U251 CNS = system: U251 CNS
UACC-257 melanoma = system: UACC-257 melanoma
UACC-62 melanoma = system: UACC-62 melanoma
UO-31 renal = system: UO-31 renal
SK-MEL-28 melanoma = system: SK-MEL-28 melanoma

Measured: TGI

C=CCN1C(N)=C(C#N)C(C#N)(C#N)C1CCC (centres undefined)
not listed: SK-MEL-28 melanoma
> 100 µM: all other assays above

C=C1c2nc3ccccc3n2C=C(c2ccc(OC)cc2)N1c1ccccc1
> 60.4 µM: M14 melanoma
> 76.1 µM: RXF 393 renal
> 96.6 µM: HS 578T breast
27.2 µM: NCI-H522 lung
58.3 µM: SNB-75 CNS
> 91.2 µM: SF-539 CNS
22.6 µM: NCI-H226 lung
> 57.9 µM: CCRF-CEM leukemia
> 69.3 µM: OVCAR-8 ovarian
> 96.7 µM: SK-MEL-28 melanoma
> 24.5 µM: SR leukemia
7.93 µM: HL-60(TB) leukemia
> 55.9 µM: MOLT-4 leukemia
4.83 µM: MDA-MB-435
98.3 µM: T-47D breast
> 91.3 µM: UO-31 renal
71 µM: BT-549 breast
> 57.6 µM: UACC-62 melanoma
42.2 µM: SK-MEL-5 melanoma
> 65.4 µM: SW-620 colon
49.8 µM: MALME-3M melanoma
98.5 µM: NCI-H23 lung
> 56.8 µM: HCT-15 colon
8.56 µM: MDA-N
98 µM: OVCAR-3 ovarian
45.1 µM: RPMI-8226 leukemia
> 63.5 µM: MCF7 breast
48.3 µM: SNB-19 CNS
> 70.9 µM: COLO 205 colon
39.8 µM: HCC-2998 colon
42.4 µM: SK-MEL-2 melanoma
9.64 µM: NCI/ADR-RES ovarian
> 34.5 µM: NCI-H460 lung
26.7 µM: HT29 colon
> 55.6 µM: SF-295 CNS
> 47.2 µM: KM12 colon
> 100 µM: all other assays above

C=CCN1CN(C2CCCCC2)CSC1=S
> 100 µM: SNB-19 CNS
27 µM: LOX IMVI melanoma | TK-10 renal
37.2 µM: EKVX NSCLC
30 µM: UACC-257 melanoma
40.8 µM: OVCAR-8 ovarian
18.4 µM: HS 578T breast
> 40.7 µM: HOP-62 NSCLC
17.8 µM: M14 melanoma
> 80.3 µM: BT-549 breast
43.6 µM: MDA-MB-231 breast
> 65.7 µM: A549 NSCLC
22.1 µM: UACC-62 melanoma
24 µM: CAKI-1 renal | UO-31 renal
25.7 µM: SNB-75 CNS
33.2 µM: A498 renal
17.1 µM: NCI-H522 lung
30.4 µM: T-47D breast
0.655 µM: HL-60(TB) leukemia
42.8 µM: NCI-H226 lung
28 µM: PC-3 prostate
17.5 µM: ACHN renal
14.3 µM: COLO 205 colon
29.6 µM: OVCAR-3 ovarian
> 22.5 µM: MOLT-4 leukemia
14.2 µM: SK-MEL-5 melanoma
18.8 µM: 786-0 renal
27.6 µM: OVCAR-5 ovarian
18 µM: KM12 colon
21.1 µM: HCC-2998 colon
17 µM: HT29 colon
9.11 µM: MCF7 breast
27.4 µM: OVCAR-4 ovarian
39.3 µM: HOP-92 NSCLC
31.4 µM: IGROV1 ovarian
24.3 µM: SW-620 colon
> 34.4 µM: RPMI-8226 leukemia
40.5 µM: NCI-H23 lung
> 45.7 µM: HCT-15 colon | K-562 leukemia
38.5 µM: SK-MEL-28 melanoma
> 44.1 µM: SK-OV-3 ovarian
26.9 µM: SK-MEL-2 melanoma
11.8 µM: SF-268 CNS
> 26.4 µM: DU-145 prostate
27.1 µM: SN12C renal
25.1 µM: HCT-116 colon
3.15 µM: SR leukemia
29.8 µM: NCI-H460 lung
> 81.5 µM: SF-295 CNS
15.7 µM: U251 CNS
> 95.5 µM: NCI/ADR-RES ovarian
8.04 µM: SF-539 CNS
21.7 µM: MDA-N
18.7 µM: MALME-3M melanoma | RXF 393 renal
12.2 µM: MDA-MB-435

COC(=O)/C(=N/NC(N)=O)C(C(=O)C(=O)Nc1ccc(C)cc1)c1nc2ccc(C(=O)c3ccccc3)cc2[nH]c1=O (centres undefined)
89.6 µM: A498 renal
41.8 µM: SR leukemia
not listed: K-562 leukemia | RPMI-8226 leukemia
> 100 µM: all other assays above

CC(C)(Oc1ccc(Cl)cc1)C(=O)N(C(=O)N1CCN(c2ccccc2)CC1)c1ccccc1
not listed: IGROV1 ovarian | RPMI-8226 leukemia
> 100 µM: all other assays above
